Experimental data from patent publication US20250049776A1, “AUTOPHAGY INDUCING COMPOUNDS AND USES THEREOF, IN PARTICULAR FOR A SYSTEMIC TREATMENT OF DISEASES AND CONDITIONS” (Samsara Therapeutics Inc., priority 2021, published 2025).

Tests used:
Format in all cases: cell-based
[1] = system: Human osteosarcoma U20S cells; assay: Assay to measure lysosome and autolysosome formation (acidic vesicle formation, LysoView/LysoTracker staining); settings: for increase in acidic vesicle formation: U20S cells, relative to DMSO-treated control (10 μM); for activation at 0.8 µM: Homo sapiens, U2OS cells, concentration of 0.8 μM, read-out: Activity (percentage increase in acidic vesicle formation over the DMSO-treated control), Table 2
How it was run: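 U2OS cells treated with compounds in DMSO for 24 h, then stained 45 min at 37 °C with 1× LysoView 633 or 50 nM LysoTracker Deep Red, with Hoechst nuclear counterstain. Live-cell fluorescence imaging at 37 °C; acidic vesicle formation judged against DMSO-treated control.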

[2] = system: SH-SY5Y cells; assay: Acidic vesicle formation in SH-SY5Y cells (LysoTracker Deep Red); settings: 24 hours
Experimental: This is evidence for significant stimulation of autophagy by this compound under these conditions. A brief description of the procedure is outlined here: • Day 1: Cells were seeded at 15K cells/well in the middle 60 wells of 6×96 well Cellvis imaging plates • Day 2: Media was replaced with 90 μl of DMEM/F12 (+10% FBS/1% P/S) containing NucBlue Live and the cells were treated with 10 μl of compound (10× concentrated) in triplicate for 24 hours. • Day3: Treatment was removed and cells were incubated for 30 minutes with LysoTracker™ Deep Red dye. Cells were washed twice with media and immediately imaged on EVOS M7000 at x20 (6 images per well, 30 minutes imaging time/plate). Images were analysed using Celleste Image analysis software.

[3] = system: U2OS cell line stabling expressing RFP-eGFP-hLC3b; assay: Tandem reporter assay (autophagic flux, RFP-only puncta); settings: Homo sapiens, RFP-only puncta as percentage of DMSO-treated control, 24 hours; for activity at 1 µM: read-out: Autolysosome % DMSO activity (compound concentration of 1 μM); for activity at 10 µM: read-out: Autolysosome % DMSO activity (compound concentration of 10 μM)
Experimental: Selected compounds of this invention were also assessed for their ability to stimulate autophagy using a U20S cell line stabling expressing RFP-eGFP-hLC3b (a tandem reporter cell line). During the process of autophagy, the cargo to be degraded is first enveloped by organelles called autophagosomes. These autophagosomes then fuse with lysosomes, causing them to become acidified and their digestive enzymes to become activated. The term “autophagic flux” is used to represent the dynamic process of autophagy: autophagic flux refers to the whole process of autophagy, including autophagosome formation, maturation, fusion with lysosomes, subsequent breakdown and the release of macromolecules back into the cytosol (Zhang X J, Chen S, Huang K X, Le W D. Why should autophagic flux be assessed? Acta Pharmacol Sin. 2013 May; 34(5): 595-9. doi: 10.1038/aps.2012.184. Epub 2013 Mar. 11). Compounds that stimulate autophagic flux stimulate the dynamic process of autophagy (the whole process of autophagy).
LC3b is a protein found in the membrane of autophagosomes which has been used to generate genetic reporters of autophagy in cells. In these systems a tandem fusion of LC3b is engineered with two fluorescent proteins of different wavelengths: one which is acid sensitive (for example eGFP, which fluoresces green) and the other which is acid insensitive (for example RFP, which fluoresces red). Cells expressing RFP-eGFP-hLC3b can be examined using fluorescent microscopy: the autophagosomes present will fluoresce in both channels (either yellow in an overlay of both channels or puncta that are present in both the individual red and green channels) but the autolysosomes present will fluoresce in the RFP (red) channel only. Using a fluorescent microscope, the number of autophagosomes and autolysosomes can be counted, allowing for the monitoring of both the induction of autophagy (total puncta count) and the rate of autophagic flux (ratio of red-only to red-and-green puncta). The influence of small molecules on autophagy induction and flux can be assessed using this system by comparison to a non-treated control.
Representative Procedure: Human osteosarcoma U2OS cells stably expressing RFP-eGFP-hLC3b were seeded (10,000 cells/well) into a 96-well glass-bottom plate (Cell Carrier Ultra, Perkin Elmer) in DMEM Glutamax media (Gibco) supplemented with 10% Fetal Bovine Serum (FBS) and antibiotics (100 u/ml penicillin, 100 μg/ml streptomycin, Invitrogen), then incubated overnight in a humified atmosphere at 37° C. and 5% CO2. The cells were then treated with the compounds of interest, dissolved in DMSO, in a duplicated 5- or 10-point dose-response. 8 wells were treated with an equivalent volume of DMSO, 4 with 0.3 μM torin-1 as a positive control (MCE) and 4 wells with 0.4 μM torin-1 plus 0.2 μM bafilomycin (MCE) as a control for flux inhibition. The cells were returned to the incubator and the treatment continued for 24 hours. After treatment, the media was aspirated off and the cells fixed with a solution of 4% formaldehyde+1% glutaraldehyde (Sigma) in dPBS (plus magnesium and calcium, Gibco).
Fixation was allowed to proceed for 15 minutes at room temperature then the fixative solution discarded and replaced with PBS (Gibco) plus Hoescht 33342 ([…], Sigma). After 30 minutes the plates were imaged on an Opera Phenix confocal microscope (Perkin-Elmer) using a 40× water objective, collecting using DAPI, mCherry and GFP channels. Cells were detected based upon the staining of their nuclei with DAPI using the Harmony image analysis software (Perkin-Elmer) and the number of autophagosomes (GFP and RFP puncta) and autolysosomes (RFP only puncta) per cell were counted using the spot picking function within the software.

SMILES	increase in acidic vesicle formation [1]	Fold change at compound concentration of 0.8 μM (acidic vesicle formation relative to DMSO-treated control) [2]	Fold change at compound concentration of 10 μM (acidic vesicle formation relative to DMSO-treated control) [2]	activation at 0.8 µM [1] [%]	activity at 1 µM [3] [%]	activity at 10 µM [3] [%]
CC(C)N(C(=O)c1ccc(-c2cnn(-c3ccc(F)cc3)c2)[nH]1)C1CCNCC1 [Compound 310, 5-[1-(4-fluorophenyl)-1H-pyrazol-4-yl]-N-(piperidin-4-yl)-N-(propan-2-yl)-1H-pyrrole-2-carboxamide]	only a slight increase	1.9	4.5	–	–	–
CC(C)N(C(=O)c1csc(-c2cnn(-c3ccccc3)c2)n1)[C@H]1CCNC1 [Compound 311, 2-(1-phenyl-1H-pyrazol-4-yl)-N-(propan-2-yl)-N-[(3S)-pyrrolidin-3-yl]-1,3-thiazole-4-carboxamide]	–	2.3	3.5	50 to 100	–	–
CC(C)N(C(=O)c1ccc(-c2cnn(-c3ccccc3)c2)[nH]1)[C@@H]1CCNC1 [Compound 313, 5-(1-phenyl-1H-pyrazol-4-yl)-N-(propan-2-yl)-N-[(3R)-pyrrolidin-3-yl]-1H-pyrrole-2-carboxamide]	–	2.0	13.2	> 100	–	–
CC(C)N(C(=O)c1ccc(-c2cnn(-c3ccccc3)c2)[nH]1)[C@H]1CCNC1 [Compound 314, 5-(1-phenyl-1H-pyrazol-4-yl)-N-(propan-2-yl)-N-[(3S)-pyrrolidin-3-yl]-1H-pyrrole-2-carboxamide]	–	2.0	14.3	> 100	–	–
CC(C)N(C(=O)c1csc(-c2cnn(-c3ccccc3)c2)n1)C1CC2(CNC2)C1 [Compound 319, N-{2-azaspiro[3.3]heptan-6-yl}-2-(1-phenyl-1H-pyrazol-4-yl)-N-(propan-2-yl)-1,3-thiazole-4-carboxamide]	–	2.4	2.7	30 to 50	–	–
CC(C)N(C(=O)c1csc(-c2cnn(-c3ccccc3)c2)n1)C1C[C@H]2CNC[C@H]2C1 (stereo partly drawn) [Compound 320, N-[(3aR,6aS)-octahydrocyclopenta[c]pyrrol-5-yl]-2-(1-phenyl-1H-pyrazol-4-yl)-N-(propan-2-yl)-1,3-thiazole-4-carboxamide]	only a slight increase	1.9	3.3	–	–	–
CC(C)N(C(=O)c1csc(-c2cnn(-c3ccccc3OC(F)(F)F)c2)n1)[C@H]1CCNC1 [Compound 396, N-(propan-2-yl)-N-[(3S)-pyrrolidin-3-yl]-2-{1-[2-(trifluoromethoxy)phenyl]-1H-pyrazol-4-yl}-1,3-thiazole-4-carboxamide]	–	–	–	–	138	78
Cc1ccccc1-n1cc(-c2nc(C(=O)N(C(C)C)[C@H]3CCNC3)cs2)cn1 [Compound 397, 2-[1-(2-methylphenyl)-1H-pyrazol-4-yl]-N-(propan-2-yl)-N-[(3S)-pyrrolidin-3-yl]-1,3-thiazole-4-carboxamide]	–	–	–	–	115	191
COc1ccccc1-n1cc(-c2nc(C(=O)N(C(C)C)[C@H]3CCNC3)cs2)cn1 [Compound 398, 2-[1-(2-methoxyphenyl)-1H-pyrazol-4-yl]-N-(propan-2-yl)-N-[(3S)-pyrrolidin-3-yl]-1,3-thiazole-4-carboxamide]	–	–	–	–	116	190
